According to patent publication US20230279482A1, “COMPOSITIONS, METHODS AND USES FOR QUANTIFYING TRANSCRIPTION AND BIOSENSING OF SMALL MOLECULES USING A NOVEL TYPE VI CRISPR-CAS ASSAY” (THE REGENTS OF THE UNIVERSITY OF COLORADO, A BODY CORPORATE, priority 2020, published 2023):

How the values were obtained:
crcB fluoride riboswitch = assay: SPRINT assay with fluoride riboswitch; format: biochemical, B. cereus
Method: SPRINT reactions. Pentauridine RNA oligonucleotides were labeled with carboxyfluorescein (FAM) or TEX 615 at the 5′-end and with Iowa Black FQ at the 3′-end. Fluorescence measurements were taken at wavelengths 490/525 nm (excitation/emission) when the FAM fluorophore was used. In reactions with flavin-containing ligands, TEX-labeled RNA oligos were used at the wavelengths 576/615 (excitation/emission). Fluorescence measurements were taken every 5 minutes.
For exemplary SPRINT assays, a master mix was first prepared and then mixed with the remaining reaction reagent components to yield a final reaction volume of 30 μL; fluorescent readings of the entire reaction volume were performed in Corning 384 Flat Bottom Black Polystyrol plates. This master mix (SPRINT buffer, 10×), for assays contemplated herein can include, but is not limited to: 700 mM Tris-HCl, pH 8.0, 700 mM NaCl, 1 mM EDTA, 140 mM β-mercaptoethanol, and 25 mM MgCl2. Aliquots of an exemplary 10× SPRINT buffer were stored at −20° C. and not allowed to undergo more than 10 freeze-thaw cycles.
The B. cereus crcB fluoride riboswitch is a regulatory switch that turns on expression of the fluoride efflux pump crcB via selectively binding fluoride over chloride. […] This may be explained in part by an observed inhibition of the assay at fluoride concentrations above 100 μM. […]

E. coli RNAP = E. coli RNAP (Escherichia coli, UniProt P0A8T7+P0A8V2); assay: Two-batch protocol: transcription in presence of fluoride, wash, then Cas13a detection; format: biochemical; conditions: fluoride riboswitch template, FIG. 6C
Method: In another exemplary method, two-batch methods included, 30 μL in vitro transcription reactions carried out as described above but without addition of Cas13a, crRNA, labeled RNA oligos, RNase inhibitor. Then, the reaction was washed three times with 500 μL ddH2O using an centrifugal filter (0.5 ml, 10 kDa cutoff). After concentrating the solution to approximately 20 μL, aliquots of 6 μL were taken and added to a 24 μL of a SHERLOCK reaction (described below).
The B. cereus crcB fluoride riboswitch is a regulatory switch that turns on expression of the fluoride efflux pump crcB via selectively binding fluoride over chloride. […] This may be explained in part by an observed inhibition of the assay at fluoride concentrations above 100 μM. To understand whether this effect stems from inhibition of the E. coli RNAP or inhibition of Cas13a, SHERLOCK reactions without RNAP were conducted at varying concentrations of sodium fluoride (FIG. 6A). […] To measure the response of the RNAP to fluoride, an exemplary two-batch protocol was developed (FIG. 6B) to first transcribe RNA in presence of fluoride, then wash out the fluoride and add the washed transcripts to Cas13a. […] The two-batch assay could also be used to wash out Cas13a-inhibiting compounds after transcription that would otherwise interfere with the assay.

Sequence of E. coli RNAP (P0A8V2 whole entry): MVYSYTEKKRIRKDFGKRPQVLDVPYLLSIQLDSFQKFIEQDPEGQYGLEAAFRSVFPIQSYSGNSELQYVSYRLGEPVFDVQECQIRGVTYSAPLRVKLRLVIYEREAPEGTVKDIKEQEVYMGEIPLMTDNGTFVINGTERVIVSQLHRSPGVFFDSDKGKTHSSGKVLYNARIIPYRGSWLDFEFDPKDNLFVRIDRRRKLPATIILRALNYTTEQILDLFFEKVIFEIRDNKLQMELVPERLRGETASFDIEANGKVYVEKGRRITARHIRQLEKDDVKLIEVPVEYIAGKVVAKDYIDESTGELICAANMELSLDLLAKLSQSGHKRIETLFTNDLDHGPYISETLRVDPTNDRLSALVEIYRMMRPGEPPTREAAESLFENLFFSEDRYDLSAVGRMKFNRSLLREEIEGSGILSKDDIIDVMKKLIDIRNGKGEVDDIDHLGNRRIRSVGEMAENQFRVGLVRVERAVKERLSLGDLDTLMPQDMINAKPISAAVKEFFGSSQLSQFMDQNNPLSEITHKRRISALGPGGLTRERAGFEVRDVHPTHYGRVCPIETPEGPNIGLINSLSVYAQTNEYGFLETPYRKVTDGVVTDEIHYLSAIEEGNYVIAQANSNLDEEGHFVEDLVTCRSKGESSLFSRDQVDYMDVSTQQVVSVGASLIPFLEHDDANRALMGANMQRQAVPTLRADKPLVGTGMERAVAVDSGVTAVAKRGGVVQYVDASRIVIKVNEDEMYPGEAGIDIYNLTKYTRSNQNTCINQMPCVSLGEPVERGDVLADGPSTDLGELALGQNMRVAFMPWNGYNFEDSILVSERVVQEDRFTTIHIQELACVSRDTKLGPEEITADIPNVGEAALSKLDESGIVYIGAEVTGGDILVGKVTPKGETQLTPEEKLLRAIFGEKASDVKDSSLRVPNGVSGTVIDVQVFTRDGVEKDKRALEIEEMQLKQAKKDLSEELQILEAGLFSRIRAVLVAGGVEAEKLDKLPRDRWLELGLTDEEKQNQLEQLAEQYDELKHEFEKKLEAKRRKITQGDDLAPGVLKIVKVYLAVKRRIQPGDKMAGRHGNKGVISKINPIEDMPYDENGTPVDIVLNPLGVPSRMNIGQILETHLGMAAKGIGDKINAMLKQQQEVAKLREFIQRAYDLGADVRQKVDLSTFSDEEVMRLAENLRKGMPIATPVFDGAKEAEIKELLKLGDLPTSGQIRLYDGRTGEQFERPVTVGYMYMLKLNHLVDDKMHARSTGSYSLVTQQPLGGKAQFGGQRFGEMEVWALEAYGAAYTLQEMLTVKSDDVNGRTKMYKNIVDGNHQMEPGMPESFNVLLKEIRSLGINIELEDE
Sequence of E. coli RNAP (P0A7Z4 whole entry, further chain): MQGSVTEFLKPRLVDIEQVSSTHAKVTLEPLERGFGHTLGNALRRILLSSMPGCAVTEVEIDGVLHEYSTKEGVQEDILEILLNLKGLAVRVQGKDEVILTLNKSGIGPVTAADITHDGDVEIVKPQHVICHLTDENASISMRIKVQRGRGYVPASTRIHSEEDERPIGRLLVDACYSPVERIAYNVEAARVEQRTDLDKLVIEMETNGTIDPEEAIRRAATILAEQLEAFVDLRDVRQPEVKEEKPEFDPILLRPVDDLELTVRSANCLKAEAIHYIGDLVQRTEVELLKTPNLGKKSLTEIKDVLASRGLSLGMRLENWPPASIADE
Sequence of E. coli RNAP (P0A800 whole entry, further chain): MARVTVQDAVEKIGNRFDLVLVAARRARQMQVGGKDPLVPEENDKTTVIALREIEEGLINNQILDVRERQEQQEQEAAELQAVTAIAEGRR
Sequence of E. coli RNAP (P0A8T7 whole entry): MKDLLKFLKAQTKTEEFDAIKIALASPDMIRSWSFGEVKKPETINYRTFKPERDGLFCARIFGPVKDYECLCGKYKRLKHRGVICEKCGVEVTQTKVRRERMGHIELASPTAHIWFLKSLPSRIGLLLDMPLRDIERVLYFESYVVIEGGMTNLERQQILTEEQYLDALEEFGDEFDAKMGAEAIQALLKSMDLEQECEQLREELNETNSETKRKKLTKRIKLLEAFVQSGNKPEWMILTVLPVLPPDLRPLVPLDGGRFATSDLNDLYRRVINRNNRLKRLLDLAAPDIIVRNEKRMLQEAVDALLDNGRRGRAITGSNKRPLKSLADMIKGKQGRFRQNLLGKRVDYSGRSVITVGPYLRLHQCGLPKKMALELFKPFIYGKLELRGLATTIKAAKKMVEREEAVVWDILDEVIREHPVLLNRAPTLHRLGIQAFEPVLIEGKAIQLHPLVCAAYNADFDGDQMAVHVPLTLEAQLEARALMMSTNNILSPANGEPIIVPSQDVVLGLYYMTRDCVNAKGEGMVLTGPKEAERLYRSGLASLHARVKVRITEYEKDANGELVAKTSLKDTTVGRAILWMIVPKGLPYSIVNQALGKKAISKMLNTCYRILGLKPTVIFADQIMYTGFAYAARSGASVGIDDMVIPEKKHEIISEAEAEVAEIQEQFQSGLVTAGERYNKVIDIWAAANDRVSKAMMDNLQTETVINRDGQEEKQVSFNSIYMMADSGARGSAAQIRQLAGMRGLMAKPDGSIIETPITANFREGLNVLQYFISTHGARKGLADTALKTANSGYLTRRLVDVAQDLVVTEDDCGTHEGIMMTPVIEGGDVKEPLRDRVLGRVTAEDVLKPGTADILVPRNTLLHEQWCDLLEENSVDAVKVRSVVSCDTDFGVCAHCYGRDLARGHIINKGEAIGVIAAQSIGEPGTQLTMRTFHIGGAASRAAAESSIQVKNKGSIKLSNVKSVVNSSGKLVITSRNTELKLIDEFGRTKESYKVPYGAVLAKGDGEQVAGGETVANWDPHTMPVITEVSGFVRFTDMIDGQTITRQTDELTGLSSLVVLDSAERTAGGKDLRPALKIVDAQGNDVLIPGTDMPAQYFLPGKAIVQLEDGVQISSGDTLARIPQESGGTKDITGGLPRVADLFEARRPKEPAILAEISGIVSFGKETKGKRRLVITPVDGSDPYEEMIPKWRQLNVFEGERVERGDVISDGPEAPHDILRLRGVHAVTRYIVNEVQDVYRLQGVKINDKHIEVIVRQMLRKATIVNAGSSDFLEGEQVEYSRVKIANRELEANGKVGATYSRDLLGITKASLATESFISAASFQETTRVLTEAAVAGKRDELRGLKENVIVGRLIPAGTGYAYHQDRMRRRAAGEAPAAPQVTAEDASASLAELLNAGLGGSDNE

EC50 (crcB fluoride riboswitch; FIG. 4C, read-out: T50 value): 11 ± 1 µM
concentration that drastically reduced transcriptional activity (E. coli RNAP): ≥ 125 µM
concentration up to which transcription is induced in a linear manner (E. coli RNAP): ≤ 100 µM
Compound: [F-].[Na+] [fluoride, sodium fluoride]
fluoride concentration at which inhibition of the assay is observed (crcB fluoride riboswitch; one-batch SPRINT): above 100 μM
